pKd: −log10 of the molar value.
How the values were obtained:
[1] = molecular target: Galectin-1 (Homo sapiens, UniProt P09382); assay: Binding affinity to human galectin1 by fluorescence polarization assay
[2] = molecular target: T1, Galectin-2 (Homo sapiens, UniProt P05162); assay: Binding affinity to human galectin2 by fluorescence polarization assay
T1 sequence (P05162 whole entry): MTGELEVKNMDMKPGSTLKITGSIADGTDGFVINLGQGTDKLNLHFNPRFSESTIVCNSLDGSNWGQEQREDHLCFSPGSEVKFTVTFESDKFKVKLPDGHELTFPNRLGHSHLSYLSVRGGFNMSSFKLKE

[3] = Binding affinity to human galectin9N by fluorescence polarization assay
[4] = Binding affinity to human galectin4C by fluorescence polarization assay
[5] = molecular target: Galectin-3 (Homo sapiens, UniProt P17931); assay: Binding affinity to human galectin3 by fluorescence polarization assay
[6] = Binding affinity to human galectin4N by fluorescence polarization assay
[7] = Binding affinity to human galectin8N by fluorescence polarization assay

Chain of Galectin-1 (P09382 whole entry): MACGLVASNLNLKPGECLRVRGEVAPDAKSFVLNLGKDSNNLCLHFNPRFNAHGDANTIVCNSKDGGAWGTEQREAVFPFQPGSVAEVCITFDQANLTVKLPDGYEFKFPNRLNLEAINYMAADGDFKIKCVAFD
Chain of Galectin-3 (P17931 whole entry): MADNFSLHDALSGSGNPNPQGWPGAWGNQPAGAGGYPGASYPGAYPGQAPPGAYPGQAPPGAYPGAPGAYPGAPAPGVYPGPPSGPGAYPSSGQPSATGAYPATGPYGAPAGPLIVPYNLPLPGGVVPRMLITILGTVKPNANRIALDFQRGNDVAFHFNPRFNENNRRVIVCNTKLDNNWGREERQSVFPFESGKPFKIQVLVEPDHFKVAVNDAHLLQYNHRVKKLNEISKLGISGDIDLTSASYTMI

Row | SMILES | pKd [1] | pKd [2] | pKd [3] | pKd [4] | pKd [5] | pKd [6] | pKd [7]
1 | CO[C@@H]1O[C@H](CO)[C@H](O)[C@H](OC(=O)c2ccc(C)cc2)[C@@H]1O[PH](=O)O | < 2.40 | 2.82 | < 2.40 | < 2.40 | 2.64 | < 2.40 | 
2 | CO[C@@H]1O[C@H](CO)[C@H](O)[C@H](OC(=O)c2ccc(C)cc2)[C@@H]1OS(=O)(=O)O | < 2.40 | < 2.40 | < 2.40 | 2.52 | 3.60 | < 2.40 | 2.96
3 | CO[C@@H]1O[C@H](CO)[C@H](O)[C@H](O)[C@@H]1O |  | < 2.00 | 2.34 | 2.00 |  | < 2.00 | 2.82
4 | CO[C@@H]1O[C@H](CO)[C@H](O)[C@H](O)[C@H]1O |  | 1.89 | 2.92 | < 2.00 |  | 2.18 | 2.20
5 | CO[C@@H]1O[C@H](CO)[C@H](O)[C@H](OC(=O)c2ccc(C)cc2)[C@@H]1OC(C)=O | < 2.40 | < 2.40 | < 2.40 | 2.80 | 3.26 | < 2.40 | < 2.40
6 | CO[C@@H]1O[C@H](CO)[C@H](O)[C@H](OC(=O)c2ccc(C)cc2)[C@@H]1O | 2.70 |  | < 2.40 |  | 2.85 | < 2.40 | 3.40
7 | CO[C@@H]1O[C@H](CO)[C@H](O)[C@H](OC(=O)c2ccc(C)cc2)[C@@H]1OP(=O)(O)OC | < 2.40 | < 2.40 | < 2.40 | < 2.40 | 3.22 | < 2.40 | 3.00
8 | CO[C@@H]1O[C@H](CO)[C@H](O)[C@H](OC(=O)c2ccc(C)cc2)[C@@H]1OC(=O)c1ccc(C)cc1 | 2.74 | < 2.40 | < 2.40 | 3.80 | 3.15 | < 2.40 | 2.44
